Reference: patent publication US4393228A, “Epoxysuccinic acid derivatives” (Taisho Pharmaceutical Co., Ltd., priority 1977, dated 1983)

Target: T1, papain (Carica papaya, UniProt P00784)
T1 construct: purchased Sigma Chem. Co
T1 sequence (P00784 134-345): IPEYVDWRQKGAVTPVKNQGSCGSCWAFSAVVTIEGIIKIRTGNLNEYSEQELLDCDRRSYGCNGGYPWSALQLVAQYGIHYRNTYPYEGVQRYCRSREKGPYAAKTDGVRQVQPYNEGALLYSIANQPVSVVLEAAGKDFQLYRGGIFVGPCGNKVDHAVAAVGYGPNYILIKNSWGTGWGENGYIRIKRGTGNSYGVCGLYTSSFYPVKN
Test: Papain inhibitory activity (milk casein digestion)
Assay type: biochemical
Settings: papain 80 μg/ml 0.5 ml, cysteine, pH 6.8, 1% milk casein, 40° C., 10 minutes
Experimental: Papain inhibitory activity of the compounds of this invention was assayed as follows: To 0.5 ml of a solution of papain (80 μg/ml, Sigma Chem. Co., 2x cry.), were added 0.25 ml of 40 mM cysteine dissolved in 20 mM disodium ethylenediamine tetraacetic acid solution adjusted pH to 6.8 with sodium hydroxide and 0.25 ml of 33 mM phosphate buffer (pH 6.8) with or without inhibitor. After incubation at 40° C. for 15 minutes, the resulting mixture was added to 5 ml of 1% milk casein solution in the same buffer as described above, and further incubated at 40° C. for 10 minutes. Then the mixture was mixed with 5 ml of 0.44 M trichloroacetic acid solution and followed by filtration with a sheet of Toyo filter paper No. 4. The extinction of the filtrate was read at 280 nm. The percent inhibition was calculated from the formula, 100 x (B-A)/B; wherein B stands for the absorbance without inhibitor and A for the absorbance with inhibitor. The compound Nos. in Table 1 are as defined in Examples as described hereinafter.

| Structure (SMILES) | ID50 (amount of inhibitor for 50% inhibition) |
| --- | --- |
| C[C@H]1CCCC[C@H]1OC(=O)[C@@H]1O[C@H]1C(=O)O[C@@H]1CCCC[C@@H]1C (relative stereo) [EP-3, di-2'-cis-methylcyclohexyl epoxysuccinate] | 2.12 γ |
| C[C@H]1CCCC[C@H]1OC(=O)[C@@H]1O[C@H]1C(=O)O (relative stereo) [EP-4, 2'-cis-methylcyclohexyl potassium epoxysuccinate] | 0.09 γ |
| C[C@@H]1CCCC[C@H]1OC(=O)[C@@H]1O[C@H]1C(=O)O[C@@H]1CCCC[C@H]1C (relative stereo) [EP-5, di-2'-trans-methylcyclohexyl epoxysuccinate] | 2.36 γ |
| C[C@@H]1CCCC[C@H]1OC(=O)[C@@H]1O[C@H]1C(=O)O (relative stereo) [EP-6, 2'-trans-methylcyclohexyl potassium epoxysuccinate] | 0.09 γ |
| O=C(O[C@@H]1CCCC[C@H]1Cl)[C@@H]1O[C@H]1C(=O)O[C@@H]1CCCC[C@H]1Cl (relative stereo) [EP-7, di-2'-trans-chlorocyclohexyl epoxysuccinate] | 2.25 γ |
| O=C(O)[C@@H]1O[C@H]1C(=O)O[C@@H]1CCCC[C@H]1Cl (relative stereo) [EP-8, 2'-trans-chlorocyclohexyl potassium epoxysuccinate] | 0.07 γ |
| C[C@H]1CC[C@H](OC(=O)[C@@H]2O[C@H]2C(=O)O[C@H]2CC[C@H](C)CC2)CC1 (relative stereo) [EP-15, di-4'-trans-methylcyclohexyl epoxysuccinate] | 1.69 γ |
| C[C@H]1CC[C@H](OC(=O)[C@@H]2O[C@H]2C(=O)O)CC1 (relative stereo) [EP-16, 4'-trans-methylcyclohexyl potassium epoxysuccinate] | 0.08 γ |
| C[C@H]1CC[C@@H](OC(=O)[C@@H]2O[C@H]2C(=O)O)CC1 (relative stereo) [EP-18, 4'-cis-methylcyclohexyl potassium epoxysuccinate] | 0.08 γ |
| O=C(O[C@H]1CC[C@H](Cl)CC1)[C@@H]1O[C@H]1C(=O)O[C@H]1CC[C@H](Cl)CC1 (relative stereo) [EP-19, di-4'-trans-chlorocyclohexyl epoxysuccinate] | 2.01 γ |
| O=C(O)[C@@H]1O[C@H]1C(=O)O[C@H]1CC[C@H](Cl)CC1 (relative stereo) [EP-20, 4'-trans-chlorocyclohexyl potassium epoxysuccinate] | 0.06 γ |
| O=C(OC1CC1)[C@@H]1O[C@H]1C(=O)OC1CC1 (relative stereo) [EP-27, dicyclopropyl epoxysuccinate] | 20.00 γ |
| O=C(O)[C@@H]1O[C@H]1C(=O)OC1CC1 (relative stereo) [EP-28, cyclopropyl potassium epoxysuccinate] | 0.80 γ |
| O=C(O[C@@H]1CCC[C@H]1Br)[C@@H]1O[C@H]1C(=O)O[C@@H]1CCC[C@H]1Br (relative stereo) [EP-33, di-2'-trans-bromocyclopentylepoxysuccinate] | 3.20 γ |
| O=C(O)[C@@H]1O[C@H]1C(=O)O[C@@H]1CCC[C@H]1Br (relative stereo) [EP-34, 2'-trans-bromocyclopentyl potassium epoxysuccinate] | 0.07 γ |
| O=C(OC1CCCCCCC1)[C@@H]1O[C@H]1C(=O)OC1CCCCCCC1 (relative stereo) [EP-35, dicyclooctyl epoxysuccinate] | 0.98 γ |
| O=C(O)[C@@H]1O[C@H]1C(=O)OC1CCCCCCC1 (relative stereo) [EP-36, cyclooctyl potassium epoxysuccinate] | 0.07 γ |
| O=C(OC1C2CC3CC(C2)CC1C3)[C@@H]1O[C@H]1C(=O)OC1C2CC3CC(C2)CC1C3 (relative stereo) [EP-37, di-2-adamantyl epoxysuccinate] | 0.22 γ |
| O=C(O)[C@@H]1O[C@H]1C(=O)OC1C2CC3CC(C2)CC1C3 (relative stereo) [EP-38, 2-adamantyl potassium epoxysuccinate] | 0.06 γ |
| O=C(OCC1CC1)[C@@H]1O[C@H]1C(=O)OCC1CC1 (relative stereo) [EP-39, dicyclopropanemethyl epoxysuccinate] | 4.39 γ |
| O=C(O)[C@@H]1O[C@H]1C(=O)OCC1CC1 (relative stereo) [EP-40, cyclopropanemethyl potassium epoxysuccinate] | 0.34 γ |

| Structure (SMILES) | ID50 (amount of inhibitor for 50% inhibition) |
| --- | --- |
| O=C(OCC1CCCCC1)[C@@H]1O[C@H]1C(=O)OCC1CCCCC1 (relative stereo) [EP-41, dicyclohexanemethyl epoxysuccinate] | 0.27 γ |
| O=C(O)[C@@H]1O[C@H]1C(=O)OCC1CCCCC1 (relative stereo) [EP-42, cyclohexanemethyl potassium epoxysuccinate] | 0.06 γ |
| O=C(OCC1CCCC1)[C@@H]1O[C@H]1C(=O)OCC1CCCC1 (relative stereo) [EP-43, dicyclopentanemethyl epoxysuccinate] | 0.45 γ |
| O=C(O)[C@@H]1O[C@H]1C(=O)OCC1CCCC1 (relative stereo) [EP-44, cyclopentanemethyl potassium epoxysuccinate] | 0.07 γ |
| O=C(OCC12CC3CC(CC(C3)C1)C2)[C@@H]1O[C@H]1C(=O)OCC12CC3CC(CC(C3)C1)C2 (relative stereo) [EP-47, di-1-adamantanemethyl epoxysuccinate] | 0.25 γ |
| O=C(O)[C@@H]1O[C@H]1C(=O)OCC12CC3CC(CC(C3)C1)C2 (relative stereo) [EP-48, 1-adamantanemethyl potassium epoxysuccinate] | 0.08 γ |
| O=C(OCCC12CC3CC(CC(C3)C1)C2)[C@@H]1O[C@H]1C(=O)OCCC12CC3CC(CC(C3)C1)C2 (relative stereo) [EP-49, di-2-(1-adamantane)ethyl epoxysuccinate] | 0.85 γ |
| O=C(O)[C@@H]1O[C@H]1C(=O)OCCC12CC3CC(CC(C3)C1)C2 (relative stereo) [EP-50, 2-(1-adamantane)ethyl potassium epoxysuccinate] | 0.09 γ |
| O=C(OC1CC2CCC1CC2)[C@@H]1O[C@H]1C(=O)OC1CC2CCC1CC2 (relative stereo) [EP-51, dibicyclo [2,2,2] octyl epoxysuccinate] | 0.30 γ |
| O=C(O)[C@@H]1O[C@H]1C(=O)OC1CC2CCC1CC2 (relative stereo) [EP-52, bicyclo [2,2,2] octyl potassium epoxysuccinate] | 0.07 γ |
| O=C(OCCC1CCCC1)[C@@H]1O[C@H]1C(=O)OCCC1CCCC1 (relative stereo) [EP-59, di-2-cyclopentaneethyl epoxysuccinate] | 0.18 γ |
| O=C(O)[C@@H]1O[C@H]1C(=O)OCCC1CCCC1 (relative stereo) [EP-60, 2-cyclopentaneethylpotassium epoxysuccinate] | 0.10 γ |
| O=C(OCCC1CCCCC1)[C@@H]1O[C@H]1C(=O)OCCC1CCCCC1 (relative stereo) [EP-61, di-2-cyclohexaneethyl epoxysuccinate] | 1.18 γ |
| O=C(O)[C@@H]1O[C@H]1C(=O)OCCC1CCCCC1 (relative stereo) [EP-62, 2-cyclohexaneethyl potassium epoxysuccinate] | 0.08 γ |
| O=C(OCCCC1CCCC1)[C@@H]1O[C@H]1C(=O)OCCCC1CCCC1 (relative stereo) [EP-63, di-3-cyclopentanepropyl epoxysuccinate] | 54.82 γ |
| O=C(O)[C@@H]1O[C@H]1C(=O)OCCCC1CCCC1 (relative stereo) [EP-64, 3-cyclopentanepropyl potassium epoxysuccinate] | 0.10 γ |
| O=C(OCCCC1CCCCC1)[C@@H]1O[C@H]1C(=O)OCCCC1CCCCC1 (relative stereo) [EP-65, di-3-cyclohexanepropyl epoxysuccinate] | 69.44 γ |
| O=C(O)[C@@H]1O[C@H]1C(=O)OCCCC1CCCCC1 (relative stereo) [EP-66, 3-cyclohexanepropyl potassium epoxysuccinate] | 0.08 γ |
| O=C(OCCCCC1CCCCC1)[C@@H]1O[C@H]1C(=O)OCCCCC1CCCCC1 (relative stereo) [EP-67, di-4-cyclohexanebutyl epoxysuccinate] | 93.28 γ |
| O=C(O)[C@@H]1O[C@H]1C(=O)OCCCCC1CCCCC1 (relative stereo) [EP-68, 4-cyclohexanebutyl potassium epoxysuccinate] | 0.10 γ |
